Consider one cell line from the supplement of paper PMC10307832.

Test in all cases: relative viability (nuclei count vs DMSO), 5 days (fraction); higher = more cells survive
Compound in the assay “BMX-IN-1 + Navitoclax”: C=CC(=O)Nc1cc(-n2c(=O)ccc3cnc4ccc(-c5ccc(NS(C)(=O)=O)cc5)cc4c32)ccc1C [BMX-IN-1] + CC1(C)CCC(c2ccc(Cl)cc2)=C(CN2CCN(c3ccc(C(=O)NS(=O)(=O)c4ccc(N[C@H](CCN5CCOCC5)CSc5ccccc5)c(S(=O)(=O)C(F)(F)F)c4)cc3)CC2)C1 [Navitoclax] (partner 0.5 µM)
The method, boiled down:
(§1)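 Relative viability equals treated-well nuclei counts divided by vehicle-well nuclei counts. Counts came from 4× images of lung cancer cell lines grown in 1536-well plates for 5 days after pin-tool dosing on the day after seeding. Dosing used one drug alone or a fixed anchor-drug dose plus five library-drug doses (not always all listed) in √10 steps, and values are medians of duplicate plates.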

Compound in the assay “BMX-IN-1 + Phenformin”: C=CC(=O)Nc1cc(-n2c(=O)ccc3cnc4ccc(-c5ccc(NS(C)(=O)=O)cc5)cc4c32)ccc1C [BMX-IN-1] + N=C(N)NC(=N)NCCc1ccccc1 [Phenformin] (partner 250 µM)
The method, boiled down: as §1

Compound in the assay “PAC-1 + Luminespib”: C=CCc1cccc(/C=N/NC(=O)CN2CCN(Cc3ccccc3)CC2)c1O [PAC-1] + CCNC(=O)c1noc(-c2cc(C(C)C)c(O)cc2O)c1-c1ccc(CN2CCOCC2)cc1 [Luminespib] (partner 0.01 µM)
The method, boiled down:
as §1

Compound in the assay “BMX-IN-1 + Alpelisib”: C=CC(=O)Nc1cc(-n2c(=O)ccc3cnc4ccc(-c5ccc(NS(C)(=O)=O)cc5)cc4c32)ccc1C [BMX-IN-1] + Cc1nc(NC(=O)N2CCC[C@H]2C(N)=O)sc1-c1ccnc(C(C)(C)C(F)(F)F)c1 [Alpelisib] (partner 2 µM)
The method, boiled down:
as §1

Compound in the assay “BMX-IN-1 + Trametinib”: C=CC(=O)Nc1cc(-n2c(=O)ccc3cnc4ccc(-c5ccc(NS(C)(=O)=O)cc5)cc4c32)ccc1C [BMX-IN-1] + CC(=O)Nc1cccc(-n2c(=O)n(C3CC3)c(=O)c3c(Nc4ccc(I)cc4F)n(C)c(=O)c(C)c32)c1 [Trametinib] (partner 0.02 µM)
The method, boiled down:
as §1

Regarding SK-MES-1, the relative viability in the assay with BMX-IN-1 + Navitoclax (first compound 0.02 µM) was 1.45; with BMX-IN-1 + Navitoclax (first compound 0.2 µM), 1.45; in the assay with BMX-IN-1 + Navitoclax (first compound 0.6325 µM) it was 1.23; with BMX-IN-1 + Navitoclax (first compound 2 µM), 1.1; with BMX-IN-1 + Phenformin (first compound 0.02 µM), 0.711; in the assay with BMX-IN-1 + Phenformin (first compound 0.2 µM), 0.792. The relative viability was determined as 0.695 in the assay with BMX-IN-1 + Phenformin (first compound 0.6325 µM); 0.724 with BMX-IN-1 + Phenformin (first compound 2 µM); 0.723 with PAC-1 + Luminespib (first compound 0.02 µM); 0.805 in the assay with PAC-1 + Luminespib (first compound 0.06325 µM); 0.726 with PAC-1 + Luminespib (first compound 0.2 µM); 0.56 with PAC-1 + Luminespib (first compound 2 µM). Further, the relative viability turned out to be 1.09 with BMX-IN-1 + Alpelisib (first compound 0.02 µM); 0.947 with BMX-IN-1 + Alpelisib (first compound 0.2 µM); 0.911 with BMX-IN-1 + Alpelisib (first compound 0.6325 µM); 0.88 with BMX-IN-1 + Alpelisib (first compound 2 µM); 0.603 with BMX-IN-1 + Trametinib (first compound 0.02 µM); 0.542 in the assay with BMX-IN-1 + Trametinib (first compound 0.2 µM). Further, the relative viability was found to be 0.561 with BMX-IN-1 + Trametinib (first compound 0.6325 µM) and 0.537 with BMX-IN-1 + Trametinib (first compound 2 µM).
